Measured values: the NIST ThermoML archive (doi:10.1021/acs.jced.7b00507)
± gives the expanded uncertainty stated by the source.

Test: mn = molality of the nth substance listed, in mol/kg
Settings: 100 kPa, Liquid, Pycnometric method

| Compound | mass density (293.15 K, m1 = 3.129) [kg/m3] | mass density (303.15 K, m1 = 4.532) [kg/m3] | mass density (313.15 K, m1 = 6.615) [kg/m3] | mass density (323.15 K, m1 = 8.465) [kg/m3] | mass density (293.15 K, m1 = 0.6199) [kg/m3] | mass density (303.15 K, m1 = 0.8756) [kg/m3] | mass density (313.15 K, m1 = 1.222) [kg/m3] | mass density (323.15 K, m1 = 1.908) [kg/m3] |
| --- | --- | --- | --- | --- | --- | --- | --- | --- |
| O=[N+]([O-])[O-].[K+] [potassium nitrate] + O | 1167 ± 12 | 1217.1 ± 12 | 1269.4 ± 13 | 1321 ± 14 | – | – | – | – |
| [K+].[O]=[V](=[O])[O-] [potassium vanadate] + O | – | – | – | – | 1060.4 ± 11 | 1081.6 ± 11 | 1111 ± 11 | 1156 ± 12 |
